Assays:
[1] = molecular target: 2PITC-modified MIF (human MIF covalently modified at Pro1 by 2-piperidinoethyl isothiocyanate) (human) (UniProt P14174); experiment: SEC-MALS
MIF [2] = molecular target: T1, MIF (Homo sapiens, UniProt P14174); experiment: MIF tautomerase activity; assay type: biochemical
T1 sequence (P14174 2-115 limits assumed): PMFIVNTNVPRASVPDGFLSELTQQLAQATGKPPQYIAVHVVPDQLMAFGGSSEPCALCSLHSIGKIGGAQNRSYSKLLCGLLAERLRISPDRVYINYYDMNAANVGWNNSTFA

MIF [3] = molecular target: T1, MIF; experiment: Covalent modification of MIF by MALDI-TOF MS and tryptic peptide mapping; assay type: binding; conditions: for site of covalent modification of MIF: trypsin digestion, peptide mapping, MS/MS, 10 μM
MIF [4] = molecular target: T1, MIF; experiment: Sedimentation velocity analytical ultracentrifugation of MIF; conditions: MIF 10 μM preincubated with 6 μM BITC 1 h RT
murine MIF = murine MIF (Mus musculus, UniProt P34884); experiment: MIF tautomerase activity; assay type: biochemical; conditions: read-out: inhibition of the tautomerase activity
human macrophages = experiment: Glucocorticoid overriding assay; assay type: cell-based
lysozyme = experiment: BITC modification specificity by MALDI-TOF; assay type: binding; conditions: equimolar, 1 h or overnight at RT
α-synuclein = α-synuclein (Homo sapiens, UniProt P37840); experiment: BITC modification specificity by MALDI-TOF; assay type: binding; conditions: equimolar, 1 h or overnight at RT
ubiquitin = ubiquitin (Homo sapiens, UniProt P0CG47); experiment: BITC modification specificity by MALDI-TOF; assay type: binding; conditions: equimolar, 1 h or overnight at RT
HeLa cells = experiment: Phospho Akt activation by MIF; assay type: cell-based, human
MIF [5] = experiment: Covalent modification of MIF by MALDI-TOF MS and tryptic peptide mapping; assay type: binding, human; conditions: 10 μM BITC, 60 min
[6] = molecular target: AITC-modified MIF (human MIF covalently modified at Pro1 by allyl isothiocyanate) (human) (UniProt P14174); experiment: SEC-MALS
[7] = molecular target: BITC-modified MIF (human MIF covalently modified at Pro1 by benzyl isothiocyanate) (human) (UniProt P14174); experiment: SEC-MALS
[8] = molecular target: BITC-modified MIF (human MIF covalently modified at Pro1 by benzyl isothiocyanate) (human) (UniProt P14174); experiment: AUC
[9] = molecular target: EITC-modified MIF (human MIF covalently modified at Pro1 by ethyl isothiocyanate) (human) (UniProt P14174); experiment: SEC-MALS
[10] = molecular target: MITC-modified MIF (human MIF covalently modified at Pro1 by methallyl isothiocyanate) (human) (UniProt P14174); experiment: SEC-MALS
[11] = molecular target: human macrophage migration inhibitory factor (MIF), unmodified (human) (UniProt P14174); experiment: SEC-MALS
[12] = molecular target: human macrophage migration inhibitory factor (MIF), unmodified (human) (UniProt P14174); experiment: AUC

## 2PITC-modified MIF (human MIF covalently modified at Pro1 by 2-piperidinoethyl isothiocyanate) (from UniProt P14174 1-115) (natural protein)
[1]
  stoichiometry N: 3

## S=C=NCCN1CCCCC1 [2PITC, 2-Piperidinoethyl isothiocyanate]
MIF [2]
  IC50: 3.09 µM
MIF [3]
  site of covalent modification of MIF: shown to modify MIF at the N-terminal Pro residue

## C=CCN=C=S [AITC, allyl isothiocyamate]
MIF [3]
  site of covalent modification of MIF: shown to modify MIF at the N-terminal Pro residue

## S=C=NCc1ccccc1 [BITC, Benzyl isothiocyanate]
MIF [4]
  quaternary structure distribution of MIF (sedimentation velocity): sedimented predominantly as a single species
Murine MIF
  inhibition at 10 µM: 100%
Human macrophages; BITC 10 μM, MIF 100 ng/mL, Dex 100 nM, LPS 100 ng/mL, 4 h
  MIF-mediated dexamethasone overriding: abrogated MIF-mediated dexamethasone overriding
Human macrophages; BITC 10 μM, LPS-stimulated, compared with dexamethasone
  TNF production: decreased TNF production even more potently than dexamethasone
Human macrophages; culture conditions used to induce TNF production (data not shown)
  macrophage viability: did not alter macrophage viability
MIF [2]; read-out: inhibition of the tautomerase activity
  inhibition at 10 µM: 100%
lysozyme
  modification of lysozyme (MS): No modification was detected
α-synuclein
  modification of α-synuclein (MS): No modification was detected
ubiquitin
  modification of ubiquitin (MS): No modification was detected
HeLa cells; BITC 1 and 10 μM, MIF 50 ng/mL, 2 h
  MIF-induced Akt phosphorylation: inhibited MIF-induced Akt phosphorylation
HeLa cells; BITC alone
  baseline Akt phosphorylation: did not modify baseline Akt phosphorylation
MIF [5]; R73AΔ5, R73AΔ10 or P107
  modification of inactive MIF proteins: no modification was observed
MIF [5]; Wt, N110C and R73A
  modification of enzymatically active forms of MIF: total modification
MIF [3]; concentrations > 10 μM, MIF 15 μM, Tris 50 mM pH 7.4, 60 min
  formation of BITC-MIF adduct (MALDI-TOF): complete conversion to the singly modified form of MIF
MIF [3]
  site of covalent modification of MIF: modification takes place at the N-terminal proline residue

## S=C=NC1CC1 [CPITC, cyclopropyl isothiocyanate]
MIF [3]
  site of covalent modification of MIF: shown to modify MIF at the N-terminal Pro residue

## CCN=C=S [EITC, ethyl isothiocyanate]
MIF [3]
  site of covalent modification of MIF: shown to modify MIF at the N-terminal Pro residue

## C=C(C)CN=C=S [MITC, methallyl Isothiocyanate]
MIF [3]
  site of covalent modification of MIF: shown to modify MIF at the N-terminal Pro residue

## C[C@@H]1C[C@H]2[C@@H]3CCC4=CC(=O)C=C[C@]4(C)[C@@]3(F)[C@@H](O)C[C@]2(C)[C@@]1(O)C(=O)CO [dexamethasone, reference compound]
Human macrophages; dexamethasone 100 nM
  TNF production by LPS-stimulated monocytes: inhibited TNF production

## AITC-modified MIF (human MIF covalently modified at Pro1 by allyl isothiocyanate) (from UniProt P14174 1-115) (natural protein)
[6]
  stoichiometry N: 3

## BITC-modified MIF (human MIF covalently modified at Pro1 by benzyl isothiocyanate) (from UniProt P14174 1-115) (natural protein)
[7]
  stoichiometry N: 3
[8]
  stoichiometry N: 3

## EITC-modified MIF (human MIF covalently modified at Pro1 by ethyl isothiocyanate) (from UniProt P14174 1-115) (natural protein)
[9]
  stoichiometry N: 3

## MITC-modified MIF (human MIF covalently modified at Pro1 by methallyl isothiocyanate) (from UniProt P14174 1-115) (natural protein)
[10]
  stoichiometry N: 3

## human macrophage migration inhibitory factor (MIF), unmodified (from UniProt P14174 1-115) (natural protein)
[11]
  stoichiometry N: 3
[12]
  stoichiometry N: 3
